From ChEMBL document CHEMBL4041523, “Design, synthesis, and evaluation of asymmetric EF24 analogues as potential anti-cancer agents for lung cancer” (Eur J Med Chem, 2017)
Activity calls are given as the source filed them. The rule behind the calls is not given here.

Columns and labels:
NCI-H1650 = assay: Cytotoxicity against human NCI-H1650 cells measured after 72 hrs by MTT assay; type: functional, cell-based; details: NCI-H1650, 72 h
[1] = tested on: Lewis lung carcinoma cell line; assay: Cytotoxicity against mouse LLC cells measured after 72 hrs by MTT assay; type: functional, cell-based
A549 [2] = assay: Cytotoxicity against human A549 cells measured after 72 hrs by MTT assay; type: functional, cell-based; details: for IC50: A549, 72 h
A549 [3] = assay: Induction of apoptosis in human A549 cells at 5 uM measured after 48 hrs by Annexin-V-FITC/propidium iodide staining based flow cytometry (reference value: 5.91 %); type: functional
A549 [4] = assay: Anti-migratory activity against human A549 cells assessed as reduction in cell migration at 5 uM measured after 24 to 72 hrs by wound healing assay relative to control; type: functional; design: scale not given: the % may be the effect or the level left
[5] = molecular target: T1, c-Jun N-terminal kinase, JNK (Homo sapiens) (UniProt P45983+P53779+P45984); assay: Induction of ROS-induced JNK phosphorylation in human A549 cells at 10 uM in presence of ROS inhibitor NAC measured after 24 hrs Western blot analysis; type: cell-based
A549 [6] = assay: Induction of apoptosis in human A549 cells measured after 48 hrs by Annexin-V-FITC/propidium iodide staining based flow cytometry; type: functional, cell-based
A549 [7] = assay: Induction of apoptosis in human A549 cells assessed as chromatin condensation measured after 72 hrs by Hoechst 33258 staining based fluorescent microscopic analysis; type: functional, cell-based
A549 [8] = assay: Induction of apoptosis in human A549 cells assessed as increase in ROS production at 10 uM by DCFH-DA staining based flow cytometry; type: functional, cell-based; details: TDE = time-dependent effect
A549 [9] = assay: Anti-migratory activity against human A549 cells assessed as reduction in cell migration measured after 24 to 72 hrs by wound healing assay; type: functional, cell-based
[10] = molecular target: T2, NF-kappa-B inhibitor alpha (Homo sapiens) (UniProt P25963); assay: Inhibition of TNF-alpha induced IkappaBalpha degradation in human A549 cells measured after 24 hrs by Western blot analysis; type: cell-based
T2 sequence (whole entry): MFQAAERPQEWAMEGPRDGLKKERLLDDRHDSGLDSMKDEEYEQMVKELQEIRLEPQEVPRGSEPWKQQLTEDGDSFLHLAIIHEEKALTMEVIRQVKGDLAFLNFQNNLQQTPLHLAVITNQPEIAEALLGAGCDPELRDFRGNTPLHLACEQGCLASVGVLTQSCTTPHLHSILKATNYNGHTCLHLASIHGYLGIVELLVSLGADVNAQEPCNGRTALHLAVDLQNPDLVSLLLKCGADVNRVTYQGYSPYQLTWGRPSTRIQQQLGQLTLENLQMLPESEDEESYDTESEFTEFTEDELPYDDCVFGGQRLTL

A549 [11] = assay: Induction of apoptosis in human A549 cells assessed as increase in Bax expression at 10 uM in presence of ROS inhibitor NAC measured after 24 hrs Western blot analysis; type: functional, cell-based
A549 [12] = assay: Induction of apoptosis in human A549 cells at 20 uM measured after 48 hrs by Annexin-V-FITC/propidium iodide staining based flow cytometry (reference value: 5.91 %); type: functional
A549 [13] = assay: Induction of apoptosis in human A549 cells assessed as ROS production at 10 uM in presence of ROS inhibitor NAC measured after 12 hrs by DCFH-DA staining based flow cytometry (reference value: 7.19 %); type: functional
A549 [14] = assay: Induction of apoptosis in human A549 cells assessed as reduction in Bcl-2 expression at 10 uM measured after 24 hrs Western blot analysis; type: functional, cell-based
A549 [15] = assay: Induction of apoptosis in human A549 cells assessed as increase in cleaved caspase-3 level at 20 uM measured after 24 hrs by Western blot analysis; type: functional, cell-based
A549 [16] = assay: Induction of apoptosis in human A549 cells assessed as cell shrinkage measured after 72 hrs by Hoechst 33258 staining based fluorescent microscopic analysis; type: functional
A549 [17] = assay: Induction of apoptosis in human A549 cells at 10 uM measured after 48 hrs by Annexin-V-FITC/propidium iodide staining based flow cytometry (reference value: 5.91 %); type: functional
A549 [18] = assay: Antiproliferative activity against human A549 cells assessed as reduction in colony formation measured after 7 days by crystal violet staining based assay; type: functional, cell-based
A549 [19] = assay: Induction of apoptosis in human A549 cells assessed as reduction in Bcl-2 expression at 10 uM in presence of ROS inhibitor NAC measured after 24 hrs Western blot analysis; type: functional, cell-based
A549 [20] = assay: Anti-migratory activity against human A549 cells assessed as reduction in cell migration at 20 uM measured after 24 to 72 hrs by wound healing assay relative to control; type: functional; design: scale not given: the % may be the effect or the level left
A549 [21] = assay: Induction of apoptosis in human A549 cells assessed as formation of apoptotic bodies measured after 72 hrs by Hoechst 33258 staining based fluorescent microscopic analysis; type: functional, cell-based
A549 [22] = assay: Induction of apoptosis in human A549 cells assessed as increase in Bax expression at 10 uM measured after 24 hrs Western blot analysis; type: functional, cell-based
A549 [23] = assay: Anti-migratory activity against human A549 cells assessed as reduction in cell migration at 10 uM measured after 24 to 72 hrs by wound healing assay relative to control; type: functional; design: scale not given: the % may be the effect or the level left
A549 [24] = assay: Induction of apoptosis in human A549 cells assessed as reduction in Bcl-2 expression measured after 24 hrs by Western blot analysis; type: functional, cell-based
A549 [25] = assay: Induction of apoptosis in human A549 cells assessed as ROS production at 10 uM measured after 12 hrs by DCFH-DA staining based flow cytometry (reference value: 7.19 %); type: functional
[26] = molecular target: Transcription factor p65 (Homo sapiens) (UniProt Q04206); assay: Inhibition of TNF-alpha stimulated P65 nuclear translocation in human A549 cells at 10 uM pretreated for 2 hrs followed by TNF-alpha induction measured after 20 mins DAPI-staining based assay; type: cell-based
Chain of Transcription factor p65 (Homo sapiens) (Q04206 whole entry): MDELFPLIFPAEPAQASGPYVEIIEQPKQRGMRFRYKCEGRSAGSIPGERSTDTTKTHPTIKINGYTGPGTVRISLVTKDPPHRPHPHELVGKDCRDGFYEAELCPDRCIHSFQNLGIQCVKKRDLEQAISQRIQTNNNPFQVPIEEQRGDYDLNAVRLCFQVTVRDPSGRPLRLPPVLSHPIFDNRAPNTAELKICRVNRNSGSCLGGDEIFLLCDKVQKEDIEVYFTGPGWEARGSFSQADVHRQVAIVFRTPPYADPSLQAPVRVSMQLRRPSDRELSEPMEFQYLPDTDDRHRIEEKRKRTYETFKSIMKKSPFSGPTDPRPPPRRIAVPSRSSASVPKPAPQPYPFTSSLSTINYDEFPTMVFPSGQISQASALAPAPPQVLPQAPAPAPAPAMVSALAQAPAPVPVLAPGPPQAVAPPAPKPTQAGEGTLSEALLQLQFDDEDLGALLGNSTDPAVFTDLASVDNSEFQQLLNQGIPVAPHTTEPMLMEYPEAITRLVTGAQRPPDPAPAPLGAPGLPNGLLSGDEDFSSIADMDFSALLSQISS

[27] = molecular target: T1, c-Jun N-terminal kinase, JNK (Homo sapiens); assay: Induction of ROS-induced JNK phosphorylation in human A549 cells at 10 uM measured after 24 hrs by Western blot analysis; type: cell-based
A549 [28] = assay: Induction of apoptosis in human A549 cells assessed as increase in Bax expression measured after 24 hrs by Western blot analysis; type: functional, cell-based

O=C1/C(=C/c2ccccc2F)COC/C1=C\c1ccc(Cl)cc1Cl was tested, and the IC50 (NCI-H1650) was 8.6 µM, the IC50 [1] was 29.4 µM and the IC50 (A549 [2]) was 7.9 µM.
O=C1/C(=C/c2ccccc2F)CNC/C1=C\c1ccccc1F showed an IC50 (NCI-H1650) of 14.6 µM, an IC50 [1] of 8.4 µM and an IC50 (A549 [2]) of 7.1 µM.
In the case of COc1cc(/C=C2\COC/C(=C\c3ccccc3F)C2=O)ccc1O, the IC50 (NCI-H1650) is reported as 18.5 µM, the IC50 [1] is reported as 13.1 µM and the IC50 (A549 [2]) is reported as 21.4 µM.
Work on COc1ccc(/C=C2\COC/C(=C\c3ccccc3F)C2=O)cc1O yielded an IC50 (NCI-H1650) of 7.5 µM, an IC50 [1] of 9.6 µM and an IC50 (A549 [2]) of 13.8 µM.
Work on COc1cc(/C=C/C(=O)CC(=O)/C=C/c2ccc(O)c(OC)c2)ccc1O [CURCUMIN] yielded an IC50 (NCI-H1650) of 20.7 µM, an IC50 [1] of 24.7 µM and an IC50 (A549 [2]) of 27.8 µM.
For O=C1/C(=C/c2cccc(O)c2)COC/C1=C\c1ccccc1F, the IC50 (NCI-H1650) was 5.7 µM, the IC50 [1] was 13.8 µM and the IC50 (A549 [2]) was 7.4 µM.
COc1cc(/C=C2\COC/C(=C\c3ccccc3F)C2=O)cc(OC)c1OC was tested, and the Activity (A549 [3]) was 6.55%, the Activity (A549 [4]) was 82.2% and the Activity [5] was “inactive”. For the same compound, the Activity (A549 [6]) was “Dose-dependent effect”, the Activity (A549 [7]) was “Dose-dependent effect” and the Activity (A549 [8]) was “Tde”. For the same compound, the Activity (A549 [9]) was “Dose-dependent effect”, the inhibition [10] was “Dose-dependent effect” and the Activity (A549 [11]) was “inactive”. For the same compound, the Activity (A549 [12]) was 20.4%, the Activity (A549 [13]) was 5.19% and the IC50 (NCI-H1650) was 6.8 µM. For the same compound, the Activity (A549 [14]) was “Active”, the Activity (A549 [15]) was “Active” and the Activity (A549 [16]) was “Dose-dependent effect”. The Activity (A549 [17]) was 9.26%, the Activity (A549 [18]) was “Dose-dependent effect” and the Activity (A549 [19]) was “inactive”. The Activity (A549 [20]) was 37.9%, the IC50 [1] was 6.1 µM and the Activity (A549 [21]) was “Dose-dependent effect”. The Activity (A549 [22]) was “Active”, the Activity (A549 [23]) was 68.7% and the Activity (A549 [2]) was “Dose-dependent effect”. The IC50 (A549 [2]) was 6.3 µM, the Activity (A549 [24]) was “Dose-dependent effect” and the Activity (A549 [25]) was 9.81%. The inhibition [26] was “Active”, the Activity [27] was “Active” and the Activity (A549 [28]) was “Dose-dependent effect”.
Compound COc1ccc(OC)c(/C=C2\COC/C(=C\c3ccccc3F)C2=O)c1 has an IC50 (NCI-H1650) of 6.8 µM, an IC50 [1] of 15.1 µM and an IC50 (A549 [2]) of 8.7 µM.
In the case of O=C1/C(=C/c2ccccc2F)COC/C1=C\c1ccccc1Br, the IC50 (NCI-H1650) is reported as 6.5 µM, the IC50 [1] is reported as 13.3 µM and the IC50 (A549 [2]) is reported as 6.5 µM.
Cc1ccc2nc(NCCN)c3ncc(C)n3c2c1 [BMS-345541] gave an Activity (A549 [12]) of 16.57%, an IC50 (NCI-H1650) of 19.9 µM and an IC50 [1] of 4.8 µM. The IC50 (A549 [2]) was 5.6 µM.
O=C1/C(=C/c2ccccc2F)COC/C1=C\c1ccccc1C(=O)O showed an IC50 (NCI-H1650) of 15.2 µM, an IC50 [1] of 17.2 µM and an IC50 (A549 [2]) of 27.9 µM.
With O=C1/C(=C/c2ccccc2)COC/C1=C\c1ccccc1F the IC50 (NCI-H1650) was 9.6 µM, the IC50 [1] was 16 µM and the IC50 (A549 [2]) was 17.6 µM.
For COc1ccccc1/C=C1\COC/C(=C\c2ccccc2F)C1=O, the IC50 (NCI-H1650) was 6.5 to 17.6 µM, the IC50 [1] was 15.4 to 17.7 µM and the IC50 (A549 [2]) was 5.9 to 11.7 µM.
